The test system of one assay is PSN1 cells. The assay can be described thus: Inhibition of KRas-mediated phosphorylation of ERK (Cisbio HTRF pERK), PSN1 cells. It counts as cell-based. Conditions: Homo sapiens, PSN1, 3 h, 3 hour compound incubation, Cisbio pERK HTRF. A digest of the protocol:
(§1)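 Cells were seeded on day 1 at 6,000 per well in RPMI containing 10% FBS before compound treatment and phospho-ERK detection.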

For a further assay, the target named is KRas G12V (Homo sapiens, UniProt P01116, G12V). The assay can be described thus: biochemical. Conditions: Binding to KRas (IC50 nM) G12V, TR-FRET displacement, KRas G12V. (TR-FRET usually uses a lanthanide donor and a delayed reading to cut background.)
The next assay has as its target KRas G12A (Homo sapiens, UniProt P01116, G12A). The class given is binding. The conditions noted are these: single point, 10 nM compound, read-out: Binding to KRas (% inhibition at 10 nM) G12A.
In the next assay the test system is MKN1 cells. Briefly: Inhibition of KRas-mediated phosphorylation of ERK (Cisbio HTRF pERK), MKN1 cells. The class given is cell-based. Conditions: Homo sapiens, MKN-1, 3 hour compound incubation, Cisbio pERK HTRF. The gist of the method: as §1
The next assay has as its target KRas G12R (Homo sapiens, UniProt P01116, G12R). Briefly: biochemical. The conditions noted are these: Binding to KRas (IC50 nM) G12R, TR-FRET displacement, KRas G12R.
The next assay concerns the target KRas G13D (Homo sapiens, UniProt P01116, G13D). The class given is binding. Conditions: single point, 10 nM compound, read-out: Binding to KRas (% inhibition at 10 nM) G13D.
For the next assay, the system named is H358 cells. Briefly: Inhibition of KRas-mediated phosphorylation of ERK (Cisbio HTRF pERK), H358 cells. The class given is cell-based. The conditions noted are these: Homo sapiens; for IC50: NCI-H358, 3 h, 3 hr compound incubation, Cisbio pERK HTRF; for inhibition at 0.1 µM: NCI-H358, single point at 100 nM, 3 hrs compound incubation.
A further assay has as its system ASPC1 cells. The assay can be described thus: Inhibition of KRas-mediated phosphorylation of ERK (Cisbio HTRF pERK), ASPC1 cells. The class given is cell-based. Conditions: Homo sapiens, AsPC-1 cells; for IC50: ASPC1, 3 h, 3 hr compound incubation, Cisbio pERK HTRF.
Another assay concerns HCT116 cells. Briefly: Inhibition of KRas-mediated phosphorylation of ERK (Cisbio HTRF pERK), HCT116 cells. The class given is cell-based. The conditions noted are these: Homo sapiens; for IC50: HCT-116, 3 h, 3 hr compound incubation, Cisbio pERK HTRF; for inhibition at 0.1 µM: HCT-116, single point at 100 nM, 3 hrs compound incubation.
The subject of the next assay is H727 cells. Briefly: Inhibition of KRas-mediated phosphorylation of ERK (Cisbio HTRF pERK), H727 cells. The class given is cell-based. The conditions noted are these: Homo sapiens; for IC50: NCI-H727, 3 h, 3 hr compound incubation, Cisbio pERK HTRF.
In a further assay the target is KRas G12C (Homo sapiens, UniProt P01116, G12C). The class given is binding. Conditions: single point, 10 nM compound, read-out: Binding to KRas (% inhibition at 10 nM) G12C.
Another assay addresses KRas Q61H (Homo sapiens, UniProt P01116, Q61H). The assay can be described thus: KRas binding assay (TR-FRET displacement), KRas Q61H. Conditions: single point, 10 nM compound.
The target in the next assay is KRas G12D (Homo sapiens, UniProt P01116, G12D). The assay can be described thus: biochemical. The conditions noted are these: Binding to KRas (IC50 nM) G12D, TR-FRET displacement, KRas G12D.
In a further assay the target is KRas WT (Homo sapiens, UniProt P01116). The assay can be described thus: KRas binding assay (TR-FRET displacement), KRas WT. The conditions noted are these: single point, 10 nM compound.
A further assay concerns A549 cells. Briefly: Inhibition of KRas-mediated phosphorylation of ERK (Cisbio HTRF pERK), A549 cells. The class given is cell-based. Conditions: Homo sapiens; for IC50: A549, 3 h, 3 hr compound incubation, Cisbio pERK HTRF; for inhibition at 0.1 µM: single point at 100 nM, 3 hrs compound incubation.
The target of a further assay is KRas G12S (Homo sapiens, UniProt P01116, G12S). The class given is binding. The conditions noted are these: single point, 10 nM compound, read-out: Binding to KRas (% inhibition at 10 nM) G12S.
The subject of the next assay is H460 cells. Briefly: Inhibition of KRas-mediated phosphorylation of ERK (Cisbio HTRF pERK), H460 cells. It counts as cell-based. Conditions: Homo sapiens; for IC50: NCI-H460, 3 h, 3 hr compound incubation, Cisbio pERK HTRF; for inhibition at 0.1 µM: NCI-H460, single point at 100 nM, 3 hrs compound incubation.

Chain of KRas G13D (P01116 1-169 isoform P01116-2 G13D): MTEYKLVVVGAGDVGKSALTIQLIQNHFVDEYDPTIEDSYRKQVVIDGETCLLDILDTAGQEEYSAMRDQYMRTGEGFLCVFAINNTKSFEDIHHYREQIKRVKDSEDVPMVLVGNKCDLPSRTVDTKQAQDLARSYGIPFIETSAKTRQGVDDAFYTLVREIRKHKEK
Chain of KRas Q61H (P01116 1-169 isoform P01116-2 Q61H): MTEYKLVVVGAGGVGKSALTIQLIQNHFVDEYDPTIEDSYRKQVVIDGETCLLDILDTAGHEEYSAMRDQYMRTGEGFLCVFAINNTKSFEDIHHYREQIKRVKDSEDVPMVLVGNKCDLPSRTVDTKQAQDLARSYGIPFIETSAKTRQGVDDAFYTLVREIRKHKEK
Chain of KRas G12C (P01116 1-169 isoform P01116-2 G12C): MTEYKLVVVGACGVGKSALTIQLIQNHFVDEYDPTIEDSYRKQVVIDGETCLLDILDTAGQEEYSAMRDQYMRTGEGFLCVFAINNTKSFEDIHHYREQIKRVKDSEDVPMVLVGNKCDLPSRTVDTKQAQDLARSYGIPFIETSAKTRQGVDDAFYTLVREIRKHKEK
Chain of KRas G12A (P01116 1-169 isoform P01116-2 G12A): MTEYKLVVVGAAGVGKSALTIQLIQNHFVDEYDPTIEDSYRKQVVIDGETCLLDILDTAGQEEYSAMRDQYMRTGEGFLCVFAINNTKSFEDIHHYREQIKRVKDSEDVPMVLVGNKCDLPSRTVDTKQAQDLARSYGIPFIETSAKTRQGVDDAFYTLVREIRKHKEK
Chain of KRas WT (P01116 1-169 isoform P01116-2): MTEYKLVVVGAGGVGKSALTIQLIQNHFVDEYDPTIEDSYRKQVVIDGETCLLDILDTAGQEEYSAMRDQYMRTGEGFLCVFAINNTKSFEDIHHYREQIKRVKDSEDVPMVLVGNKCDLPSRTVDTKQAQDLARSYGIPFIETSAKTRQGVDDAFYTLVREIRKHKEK
Chain of KRas G12S (P01116 1-169 isoform P01116-2 G12S): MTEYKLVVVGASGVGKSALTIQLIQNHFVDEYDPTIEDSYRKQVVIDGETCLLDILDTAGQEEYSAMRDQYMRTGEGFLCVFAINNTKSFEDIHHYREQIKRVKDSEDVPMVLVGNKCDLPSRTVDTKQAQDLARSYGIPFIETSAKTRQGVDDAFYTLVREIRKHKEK
Chain of KRas G12D (P01116 1-169 isoform P01116-2 G12D): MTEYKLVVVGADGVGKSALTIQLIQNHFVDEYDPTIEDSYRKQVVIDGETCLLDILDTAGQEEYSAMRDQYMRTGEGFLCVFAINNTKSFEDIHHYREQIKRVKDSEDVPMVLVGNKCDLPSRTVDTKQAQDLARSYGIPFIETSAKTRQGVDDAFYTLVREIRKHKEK
Chain of KRas G12V (P01116 1-169 isoform P01116-2 G12V): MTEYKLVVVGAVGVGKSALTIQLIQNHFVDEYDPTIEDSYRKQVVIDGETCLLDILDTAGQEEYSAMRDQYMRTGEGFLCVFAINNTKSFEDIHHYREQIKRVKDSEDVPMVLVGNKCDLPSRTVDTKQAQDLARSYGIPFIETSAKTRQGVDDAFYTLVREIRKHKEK
Chain of KRas G12R (P01116 1-169 isoform P01116-2 G12R): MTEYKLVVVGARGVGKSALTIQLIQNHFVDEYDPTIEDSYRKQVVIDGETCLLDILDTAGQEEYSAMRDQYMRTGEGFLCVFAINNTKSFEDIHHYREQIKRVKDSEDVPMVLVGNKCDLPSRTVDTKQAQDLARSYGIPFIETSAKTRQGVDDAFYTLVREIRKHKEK

Broadly, the IC50 is the concentration that gives 50% inhibition. Low readings indicate inhibition by little substance, high ones a need for much substance. One may read the inhibition as the change of the read-out against control, counted positive when it falls. As for `CCc1c(F)ccc2cc(O)cc(N3CCc4c(nc(OC[C@@]56CCCN5C[C@H](F)C6)nc4N4CCCn5nc(C(=O)N6C[C@@H]7C[C@H](C6)[C@H](O)C7)cc5C4)C3)c12` [Example 268, (5-(7-(8-ethyl-7-fluoro-3-hydroxynaphthalen-1-yl)-2-(((2R,7aS)-2-fluorohexahydro-1H-pyrrolizin-7a-yl)methoxy)-5,6,7,8-tetrahydropyrido[3,4-d]pyrimidin-4-yl)-5,6,7,8-tetrahydro-4H-pyrazolo[1,5-a][1,4]diazepin-2-yl)((1R,5R,6R)-6-hydroxy-3-azabicyclo[3.2.1]octan-3-yl)methanone], the IC50 with PSN1 cells is > 10000 nM; at KRas G12V, < 2 nM; with MKN1 cells, 8.9 nM; at KRas G12R, < 2 nM; in the assay with H358 cells, 7 nM; in the assay on ASPC1 cells, 18 nM. For the same compound, the half-inhibitory concentration (IC50) in the assay with HCT116 cells was 218 nM; in the assay with H727 cells it was 32 nM; at KRas G12D, < 2 nM; in the assay on A549 cells, 83 nM; in the assay on H460 cells it was 56 nM. The inhibition at 0.01 µM turned out to be 98% on KRas G12A; 99% on KRas G13D; 99% on KRas G12C; 99% at KRas Q61H; 98% at KRas WT; 99% at KRas G12S. The inhibition at 0.1 µM with H358 cells was found to be 104%; with ASPC1 cells (ASPC1, single point at 100 nM, 3 hrs compound incubation), 84%; in the assay with H727 cells (NCI-H727, single point at 100 nM, 3 hrs compound incubation), 49%; in the assay on A549 cells it was 67%.
Take `CCc1c(F)ccc2cc(O)cc(N3CCc4c(nc(OC[C@@]56CCCN5C[C@H](F)C6)nc4N4CCCn5nc(C(=O)N(C)C)c(COC)c5C4)C3)c12` [Example 269, 5-(7-(8-ethyl-7-fluoro-3-hydroxynaphthalen-1-yl)-2-(((2R,7aS)-2-fluorohexahydro-1H-pyrrolizin-7a-yl)methoxy)-5,6,7,8-tetrahydropyrido[3,4-d]pyrimidin-4-yl)-3-(methoxymethyl)-N,N-dimethyl-5,6,7,8-tetrahydro-4H-pyrazolo[1,5-a][1,4]diazepine-2-carboxamide]: the IC50 is 9880 nM in the assay on PSN1 cells; < 2 nM at KRas G12V; 1.4 nM in the assay with MKN1 cells; < 2 nM at KRas G12R; 1 nM with H358 cells; 3 nM in the assay on ASPC1 cells. Further, the 50% inhibitory concentration (IC50) was 25 nM with HCT116 cells; 5 nM with H727 cells; < 2 nM at KRas G12D; 2 nM in the assay on A549 cells; 8 nM in the assay on H460 cells. The inhibition at 0.01 µM came out at 99% on KRas G12A; 99% at KRas G13D; 100% on KRas G12C; 98% on KRas Q61H; 99% at KRas WT; 100% on KRas G12S. For the same compound, the inhibition at 0.1 µM with H358 cells amounted to 100%; in the assay with A549 cells, 93%; in the assay on H460 cells it was 89%.
On to `CCc1c(F)ccc2cc(O)cc(N3CCc4c(nc(OC[C@@]56CCCN5C[C@H](F)C6)nc4N4CCCn5nc(C(=O)N6C[C@H](C)N[C@@H](C)C6)cc5C4)C3)c12` [Example 282, ((3S,5S)-3,5-dimethylpiperazin-1-yl)(5-(7-(8-ethyl-7-fluoro-3-hydroxynaphthalen-1-yl)-2-(((2R,7aS)-2-fluorohexahydro-1H-pyrrolizin-7a-yl)methoxy)-5,6,7,8-tetrahydropyrido[3,4-d]pyrimidin-4-yl)-5,6,7,8-tetrahydro-4H-pyrazolo[1,5-a][1,4]diazepin-2-yl)methanone], for which the IC50 was > 10000 nM in the assay on PSN1 cells; < 2 nM on KRas G12V; 35.1 nM with MKN1 cells; < 2 nM at KRas G12R; 16 nM in the assay on H358 cells; 9 nM with ASPC1 cells. Besides, the IC50 was 172 nM in the assay with HCT116 cells; 128 nM in the assay with H727 cells; < 2 nM on KRas G12D; 53 nM with A549 cells; 93 nM with H460 cells. In addition, the inhibition at 0.01 µM at KRas G12A was found to be 98%; on KRas G13D it was 99%; on KRas G12C it was 99%; on KRas Q61H, 99%; at KRas WT, 98%; at KRas G12S, 100%. Also, the inhibition at 0.1 µM turned out to be 88% in the assay on H358 cells, 12% in the assay on HCT116 cells, 37% with A549 cells and 35% in the assay with H460 cells.
Turning to `CCc1c(F)ccc2cc(O)cc(N3CCc4c(nc(OC[C@@]56CCCN5C[C@H](F)C6)nc4N4CCCn5nc(C(=O)N6CC7CC(C6)N7)cc5C4)C3)c12` [Example 283, 3,6-diazabicyclo[3.1.1]heptan-3-yl(5-(7-(8-ethyl-7-fluoro-3-hydroxynaphthalen-1-yl)-2-(((2R,7aS)-2-fluorohexahydro-1H-pyrrolizin-7a-yl)methoxy)-5,6,7,8-tetrahydropyrido[3,4-d]pyrimidin-4-yl)-5 6,7,8-tetrahydro-4Hi-pyrazolo[1,5-a][1,4]diazepin-2-yl)methanone], the concentration for half-maximal inhibition (IC50) with PSN1 cells was > 10000 nM; on KRas G12V, < 2 nM; in the assay with MKN1 cells, 155 nM; on KRas G12R, < 2 nM; in the assay on ASPC1 cells, 22 nM; in the assay with H727 cells it was 106 nM. Also, the half-maximal inhibitory concentration (IC50) at KRas G12D is < 2 nM. Also, the inhibition at 0.01 µM on KRas G12A was 97%; at KRas G13D, 98%; at KRas G12C, 99%; on KRas Q61H it was 97%; on KRas WT it was 95%; at KRas G12S, 99%. In addition, the inhibition at 0.1 µM in the assay on H358 cells was 48%; with HCT116 cells, -8%; in the assay with A549 cells, 40%; in the assay with H460 cells, 18%.
Turning to `CCc1c(F)ccc2cc(O)cc(N3CCc4c(nc(OC[C@@]56CCCN5C[C@H](F)C6)nc4N4CCCn5nnc(Br)c5C4)C3)c12` [Example 284, 4-(4-(3-bromo-7,8-dihydro-4H-[1,2,3]triazolo[1,5-a][1,4]diazepin-5(6H)-yl)-2-(((2R,7aS)-2-fluorohexahydro-1H-pyrrolizin-7a-yl)methoxy)-5,6-dihydropyrido[3,4-d]pyrimidin-7(8H)-yl)-5-ethyl-6-fluoronaphthalen-2-ol], the 50% inhibitory concentration (IC50) with PSN1 cells is > 10000 nM; at KRas G12V, < 2 nM; with MKN1 cells it was 30.5 nM; at KRas G12R it was < 2 nM; with H358 cells, 10 nM; in the assay with ASPC1 cells, 3 nM. Moreover, the IC50 with HCT116 cells is 157 nM; with H727 cells, 21 nM; on KRas G12D, < 2 nM; in the assay on A549 cells, 22 nM; in the assay with H460 cells, 64 nM. The inhibition at 0.01 µM on KRas G12A came out at 88%; at KRas G13D, 90%; at KRas G12C, 95%; on KRas Q61H, 89%; on KRas WT, 88%; at KRas G12S it was 96%. Further, the inhibition at 0.1 µM was determined as 89% in the assay with H358 cells, 27% in the assay on HCT116 cells, 66% with A549 cells and 53% in the assay on H460 cells.

The values are drawn from US20250368649A1, “TETRAHYDROPYRIDOPYRIMIDINE PAN-KRAS INHIBITORS” (Mirati Therapeutics, Inc., priority 2022, published 2025).
